Values belong to the molecule of their own block, whether it stands above or below them.
System: 565726-208-R1-J5-PDC complex spheroids, growth inhibition
Assay: Anticancer human tumor 565726-208-R1-J5-PDC patient-derived pancreatic adenocarcinoma cell line growth inhibition [RAS]
Settings: for IC50: curve of first compound; for viability, T/C: stronger effect = lower value
In short: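 Tumour cells grown as complex spheroids with HUVEC endothelial cells and mesenchymal stem cells, treated with RAS pathway inhibitor combinations. Each agent spans half-log steps from near clinical Cmax, or 10 microM where Cmax is unknown.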

[1] = second compound 0.00316 µM, first compound 0.0316 µM
[2] = second compound 0.00316 µM, first compound 0.1 µM
[3] = second compound 0.00316 µM, first compound 0.316 µM
[4] = second compound 0.00316 µM, first compound 1 µM
[5] = second compound 0.00316 µM, first compound 3.16 µM
[6] = second compound 0.00316 µM, first compound 10 µM
[7] = second compound 0.01 µM, first compound 0.0316 µM
[8] = second compound 0.01 µM, first compound 0.1 µM
[9] = second compound 0.01 µM, first compound 0.316 µM
[10] = second compound 0.01 µM, first compound 1 µM
[11] = second compound 0.01 µM, first compound 3.16 µM
[12] = second compound 0.01 µM, first compound 10 µM
[13] = second compound 0.0316 µM, first compound 0.0316 µM
[14] = second compound 0.0316 µM, first compound 0.1 µM
[15] = second compound 0.0316 µM, first compound 0.316 µM
[16] = second compound 0.0316 µM, first compound 1 µM
[17] = second compound 0.0316 µM, first compound 3.16 µM
[18] = second compound 0.0316 µM, first compound 10 µM
[19] = second compound 0.1 µM, first compound 0.0316 µM
[20] = second compound 0.1 µM, first compound 0.1 µM
[21] = second compound 0.1 µM, first compound 0.316 µM
[22] = second compound 0.1 µM, first compound 1 µM
[23] = second compound 0.1 µM, first compound 3.16 µM
[24] = second compound 0.1 µM, first compound 10 µM
[25] = second compound 0.316 µM, first compound 0.0316 µM
[26] = second compound 0.316 µM, first compound 0.1 µM
[27] = second compound 0.316 µM, first compound 0.316 µM
[28] = second compound 0.316 µM, first compound 1 µM
[29] = second compound 0.316 µM, first compound 3.16 µM
[30] = second compound 0.316 µM, first compound 10 µM
[31] = second compound 1 µM, first compound 0.0316 µM
[32] = second compound 1 µM, first compound 0.1 µM
[33] = second compound 1 µM, first compound 0.316 µM
[34] = second compound 1 µM, first compound 1 µM
[35] = second compound 1 µM, first compound 3.16 µM
[36] = second compound 1 µM, first compound 10 µM
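Further: spheroids exposed to compounds for seven days before readout.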
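Wherever viability, T/C is given: 100% = DMSO vehicle control viability.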

- IC50 (second compound 0.00316 µM): > 10 µM
- IC50 (second compound 0.01 µM): > 10 µM
- IC50 (second compound 0.0316 µM): > 10 µM
- IC50 (second compound 0.1 µM): > 10 µM
- IC50 (second compound 0.316 µM): > 10 µM
- IC50 (second compound 1 µM): > 10 µM
Structure (SMILES): CC(Nc1ccc2c(c1)OCCn1cc(N3C(=O)OCC3C(F)F)nc1-2)C(N)=O (stereo unspecified) + C=CC(=O)N1CCN(c2nc(OCC3CCCN3C)nc3c(F)c(-c4nc(N)cc(C)c4C(F)(F)F)c(Cl)cc23)C(C)C1
- viability, T/C [1]: 87.9%
- viability, T/C [2]: 124%
- viability, T/C [3]: 93.7%
- viability, T/C [4]: 67.5%
- viability, T/C [5]: 92.8%
- viability, T/C [6]: 86.4%
- viability, T/C [7]: 95.4%
- viability, T/C [8]: 139%
- viability, T/C [9]: 79.8%
- viability, T/C [10]: 66%
- viability, T/C [11]: 100%
- viability, T/C [12]: 89%
- viability, T/C [13]: 121%
- viability, T/C [14]: 128%
- viability, T/C [15]: 78.6%
- viability, T/C [16]: 67.9%
- viability, T/C [17]: 104%
- viability, T/C [18]: 96.2%
- viability, T/C [19]: 149%
- viability, T/C [20]: 130%
- viability, T/C [21]: 69.4%
- viability, T/C [22]: 66.8%
- viability, T/C [23]: 62.7%
- viability, T/C [24]: 85.1%
- viability, T/C [25]: 141%
- viability, T/C [26]: 139%
- viability, T/C [27]: 86.3%
- viability, T/C [28]: 79.8%
- viability, T/C [29]: 66.3%
- viability, T/C [30]: 102%
- viability, T/C [31]: 126%
- viability, T/C [32]: 147%
- viability, T/C [33]: 90.2%
- viability, T/C [34]: 64.9%
- viability, T/C [35]: 85.3%
- viability, T/C [36]: 89.8%

- IC50 (second compound 0.00316 µM): > 10 µM
- IC50 (second compound 0.01 µM): > 10 µM
- IC50 (second compound 0.0316 µM): > 10 µM
- IC50 (second compound 0.1 µM): > 10 µM
- IC50 (second compound 0.316 µM): > 10 µM
- IC50 (second compound 1 µM): > 10 µM
Structure (SMILES): C[C@@H](NC(=O)c1ncnc(N)c1Cl)c1ncc(C(=O)Nc2cc(C(F)(F)F)c(Cl)cn2)s1 + C=CC(=O)N1CCN(c2nc(OCC3CCCN3C)nc3c(F)c(-c4nc(N)cc(C)c4C(F)(F)F)c(Cl)cc23)C(C)C1
- viability, T/C [1]: 119%
- viability, T/C [2]: 151%
- viability, T/C [3]: 88.8%
- viability, T/C [4]: 98.3%
- viability, T/C [5]: 77.7%
- viability, T/C [6]: 78.3%
- viability, T/C [7]: 95.5%
- viability, T/C [8]: 140%
- viability, T/C [9]: 94.5%
- viability, T/C [10]: 89.1%
- viability, T/C [11]: 91.9%
- viability, T/C [12]: 67.8%
- viability, T/C [13]: 115%
- viability, T/C [14]: 129%
- viability, T/C [15]: 92.8%
- viability, T/C [16]: 99.3%
- viability, T/C [17]: 88.2%
- viability, T/C [18]: 70.9%
- viability, T/C [19]: 120%
- viability, T/C [20]: 123%
- viability, T/C [21]: 102%
- viability, T/C [22]: 97.2%
- viability, T/C [23]: 98.7%
- viability, T/C [24]: 83.4%
- viability, T/C [25]: 86.7%
- viability, T/C [26]: 128%
- viability, T/C [27]: 104%
- viability, T/C [28]: 101%
- viability, T/C [29]: 106%
- viability, T/C [30]: 76.9%
- viability, T/C [31]: 89.1%
- viability, T/C [32]: 120%
- viability, T/C [33]: 108%
- viability, T/C [34]: 114%
- viability, T/C [35]: 86.4%
- viability, T/C [36]: 74.6%

- IC50 (second compound 0.00316 µM): 0.46 µM
- IC50 (second compound 0.01 µM): 0.29 µM
- IC50 (second compound 0.0316 µM): > 1 µM
- IC50 (second compound 0.1 µM): 0.365 µM
- IC50 (second compound 0.316 µM): > 1 µM
- IC50 (second compound 1 µM): 0.759 µM
Structure (SMILES): O=C(c1ccc(F)c(F)c1Nc1ccc(I)cc1F)N1CC(O)([C@@H]2CCCCN2)C1 + C=CC(=O)N1CCN(c2nc(OCC3CCCN3C)nc3c(F)c(-c4nc(N)cc(C)c4C(F)(F)F)c(Cl)cc23)C(C)C1
- viability, T/C (second compound 0.00316 µM, first compound 0.00316 µM): 105%
- viability, T/C (second compound 0.00316 µM, first compound 0.01 µM): 142%
- viability, T/C [1]: 73.3%
- viability, T/C [2]: 78.3%
- viability, T/C [3]: 58.1%
- viability, T/C [4]: 39.1%
- viability, T/C (second compound 0.01 µM, first compound 0.00316 µM): 120%
- viability, T/C (second compound 0.01 µM, first compound 0.01 µM): 141%
- viability, T/C [7]: 88.3%
- viability, T/C [8]: 71.3%
- viability, T/C [9]: 56.6%
- viability, T/C [10]: 30.1%
- viability, T/C (second compound 0.0316 µM, first compound 0.00316 µM): 146%
- viability, T/C (second compound 0.0316 µM, first compound 0.01 µM): 174%
- viability, T/C [13]: 75.4%
- viability, T/C [14]: 82.4%
- viability, T/C [15]: 56.4%
- viability, T/C [16]: 38.1%
- viability, T/C (second compound 0.1 µM, first compound 0.00316 µM): 138%
- viability, T/C (second compound 0.1 µM, first compound 0.01 µM): 137%
- viability, T/C [19]: 91.1%
- viability, T/C [20]: 69.8%
- viability, T/C [21]: 60%
- viability, T/C [22]: 36.3%
- viability, T/C (second compound 0.316 µM, first compound 0.00316 µM): 154%
- viability, T/C (second compound 0.316 µM, first compound 0.01 µM): 139%
- viability, T/C [25]: 73.1%
- viability, T/C [26]: 71.3%
- viability, T/C [27]: 56.7%
- viability, T/C [28]: 38.9%
- viability, T/C (second compound 1 µM, first compound 0.00316 µM): 137%
- viability, T/C (second compound 1 µM, first compound 0.01 µM): 137%
- viability, T/C [31]: 82.2%
- viability, T/C [32]: 85.9%
- viability, T/C [33]: 61.2%
- viability, T/C [34]: 50.3%
